Measurements from US8946260B2, “17α-hydroxylase/C17,20-lyase inhibitors” (Novartis AG, priority 2010, dated 2015).
Counter-ions that a name gives are not always drawn.

biological target: T1, recombinant Human CYP17 enzyme (17-20 lyase) (Homo sapiens, UniProt P05093); assay: Cytochrome P450, 17-20 lyase (CYP17-lyase) assay, 17-α-hydroxy pregnenolone [21-3H] as substrate; type: biochemical; settings: not given
T1 construct: made in house; host or cells: A549 cells, adenoviral expression system; purified cell membrane preparations
T1 sequence (P05093 1-508): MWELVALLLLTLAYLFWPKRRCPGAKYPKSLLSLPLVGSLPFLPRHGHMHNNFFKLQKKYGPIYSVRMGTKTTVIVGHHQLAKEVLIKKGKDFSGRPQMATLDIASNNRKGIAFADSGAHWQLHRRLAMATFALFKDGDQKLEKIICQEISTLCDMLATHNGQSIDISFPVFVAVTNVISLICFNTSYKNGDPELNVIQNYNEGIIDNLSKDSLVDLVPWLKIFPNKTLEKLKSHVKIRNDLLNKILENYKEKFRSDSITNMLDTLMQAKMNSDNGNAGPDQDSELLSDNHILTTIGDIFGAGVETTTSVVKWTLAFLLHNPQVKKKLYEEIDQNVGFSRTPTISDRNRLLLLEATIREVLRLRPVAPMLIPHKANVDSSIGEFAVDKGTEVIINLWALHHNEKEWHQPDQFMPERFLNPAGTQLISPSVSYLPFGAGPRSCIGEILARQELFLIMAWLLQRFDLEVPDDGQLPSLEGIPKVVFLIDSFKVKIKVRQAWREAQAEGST
Text: 1) Cytochrome P450, 17-20 Lyase (CYP17-Lyase) Assay Development Using Recombinant Human CYP17 Enzyme and 17-α-Hydroxy Pregnenolone [21-3H] as the Substrate.
Cytochrome P450, 17-α-Hydroxylase, 17-20 lyase (CYP17) is a multi functional enzyme that plays a key role in the biosynthesis of steroid hormones. It catalyses both conventional hydroxylation and also the carbon-carbon bond cleavage reactions (Peter Lee-Robichaud et al, Biochem. J, (1997) 321, 857-63). In the hydroxylation reaction, it converts progesterone and pregnenolone to the corresponding hydroxylated products 17-α-hydroxy progesterone and 17-α-hydroxy pregnenolone. In the lyase reaction, it catalyzes the conversion of these hydroxylated substrates to Androstenedione and Dehydroepiandrosterone (DHEA) respectively. In the Cyp17 lyase assay described here, the conversion of 17-α-hydroxy pregnenolone to Dehydroepiandrosterone and acetic acid is being monitored.
Assay method was adopted from a published protocol with some modifications to suit our requirements (Dmitry N Grigoryev et al, Analytical Biochemistry, (1999) 267, 319-330). The conversion of 17-α-hydroxy pregnenolone to Dehydroepiandrosterone is accompanied by the release of acetic acid. In the Cyp17 lyase assay, 17-α-hydroxy pregnenolone labeled with tritium (3H) at position 21 is used as the substrate. Chloroform extraction removes the radioactive steroids and acetic acid is taken into aqueous layer. The tritiated acetic acid released in the assay thus extracted is quantified to determine the enzyme activity.
Initial buffer conditions were, 50 mM Phosphate buffer, pH 7.5 was used as the starting buffer for Cyp17 lyase activity based on the data published in US patent publication No. US2004/0198773 A1. […] Human Cyp 17 gene was cloned and expressed in Adenoviral expression system in A549 cell lines. The purified cell membrane preparations were used as the source for Human CYP17 enzyme. Total protein concentration: 8 mg/mL.
For routine screening, the assay was set up with 16 μg of enzyme in 50 μL reaction volume. 17α-hydroxy pregnenolone [21-3H] was added to a final concentration of 0.25 μM. NADPH is used at a final concentration of 4.2 mM. Total reaction volume was made up to 50 μL with 50 mM Phosphate buffer pH 7.5. The reaction mixture was incubated at room temperature for 90 minutes with gentle shaking. The reaction was stopped by the addition of 100 μL of buffer. 500 μL of 5% freshly prepared activated charcoal was added to the solution and mixed well by vortexing. The samples were centrifuged at 17568×g for 5 minutes. (14000 rpm). The supernatant was carefully transferred to fresh tube and 1.3 mL of scintillation fluid was added, mixed by vortexing.
The radioactivity was measured in a 1450 MicroBeta TriLux™ scintillation counter from Wallac-Perkin Elmer®, USA. The measurements were carried out in 2.0 mL Eppendorf™ tubes. Each tube was counted for 1 minute. The amount of tritiated acetic acid released is proportional to the lyase activity. Percent lyase activity in presence of inhibitor was calculated using the formula given below.
[formula] • Sample: Enzyme reaction in presence of inhibitor. • Positive control: Enzyme reaction without inhibitor but containing DMSO at 1% final concentration. • Blank—Contains all reagents except enzyme. • % Inhibition=100%−% Lyase activity
For IC50 determination, the % inhibition was plotted as a function of inhibitor concentration. The data was fitted to sigmoidal equation using Graphpad Prism® software IV to generate IC50 values.

| SMILES | IC50 [nM] |
| --- | --- |
| CCn1c2c(c3cc(F)ccc31)C(=O)N(c1cnccc1C)CC2 [Example 59A, 5-ethyl-8-fluoro-2-(4-methylpyridin-3-yl)-2,3,4,5-tetrahydro-1H-pyrido[4,3-b]indol-1-one] | 29 |

same assay, conditions: at 10 μM; read-out: hCYP17 Lyase % Inh

| SMILES | inhibition at 10 µM [%] |
| --- | --- |
| Cc1ccncc1N1CCc2ccc(Oc3ncc(F)cn3)cc2C1=O [Example 37A, 7-(5-fluoropyrimidin-2-yloxy)-2-(4-methylpyridin-3-yl)-3,4-dihydroisoquinolin-1(2H)-one] | 63 |
| Cc1ccncc1N1CCc2ccc(F)c(NCC3CC3)c2C1=O [Example 39A, 8-(cyclopropylmethylamino)-7-fluoro-2-(4-methylpyridin-3-yl)-3,4-dihydroisoquinolin-1(2H)-one, acetate salt] | 76 |
| COc1cc2c(cc1OC)C(=O)N(c1cnccc1C)CC2 [Example 40A, 6,7-Dimethoxy-2-(4-methyl-pyridin-3-yl)-3,4-dihydro-2H-isoquinolin-1-one] | 12 |
| Cc1ccncc1N1CCc2cc(Cl)c(Cl)cc2C1=O [Example 41A, 6,7-dichloro-2-(4-methylpyridin-3-yl)-3,4-dihydroisoquinolin-1 (2H)-one] | 10 |
| COc1ccc(F)c2c1C(=O)N(c1cnccc1C)CC2 [Example 44A, 5-fluoro-8-methoxy-2-(4-methylpyridin-3-yl) 3,4-dihydroisoquinolin-1(2H)-one] | 8 |

same assay, conditions: human CYP17 lyase; substrate 0.25 μM; room temperature, 90 minutes

| SMILES | Lyase IC 50 nM Human |
| --- | --- |
| O=c1c2c(ccn1-c1cnccc1C(F)(F)F)[nH]c1ccccc12 [Example 63A, 2-(4-(trifluoromethyl)pyridin-3-yl)-2,5-dihydro-1H-pyrido[4,3-b]indol-1-one] | NOT ACTIVE |

same assay, conditions: human CYP17 lyase; substrate 0.25 μM; room temperature, 90 minutes; read-out: Lyase IC 50 nM Human

| SMILES | IC50 [nM] |
| --- | --- |
| Cc1ccncc1N1CCc2ccc(Cl)c(F)c2C1=O [Example 33A, 7-chloro-8-fluoro-2-(4-methylpyridin-3-yl)-3,4-dihydroisoquinolin-1(2H)-one] | 13 |
| Cc1ccncc1N1CCc2ccc(F)c(Cl)c2C1=O [Example 34A, 8-chloro-7-fluoro-2-(4-methylpyridin-3-yl)-3,4-dihydroisoquinolin-1(2H)-one] | 149 |
| O=c1c2cc(C(F)(F)F)ccc2ccn1-c1cccnc1 [Example 36A, 2-(pyridin-3-yl)-7-(trifluoromethyl)isoquinolin-1(2H)-one] | 54 |
| CCn1c2c(c3ccccc31)CCN(c1cnccc1C)C2=O [Example 38A, 9-ethyl-2-(4-methylpyridin-3-yl)-2,3,4,9-tetrahydro-1H-pyrido[3,4-b]indol-1-one] | 23 |
| CCn1c2c(c3ccccc31)CC(C)N(c1cccnc1)C2=O (stereo not shown) [Example 42A, 9-ethyl-3-methyl-2-(pyridin-3-yl)-2,3,4,9-tetrahydro-1H-pyrido[3,4-b]indol-1-one] | 55 |
| CC1Cc2ccc(C(F)(F)F)cc2C(=O)N1c1cccnc1 (stereo not shown) [Example 43A, 3-Methyl-2-pyridin-3-yl-7-trifluoromethyl-3,4-dihydro-2H-isoquinolin-1-one] | 15 |
| Cc1ccncc1N1CCc2c(sc3ccc(F)cc23)C1=O [Example 45A, 6-Fluoro-2-(4-methyl-pyridin-3-yl)-3,4-dihydro-2H-benzo[4,5]thieno[2,3-c]pyridin-1-one] | 211 |
| CCn1c2c(c3ccccc31)CC(C)N(c1cnccc1C)C2=O (stereo not shown) [Example 46A, 9-Ethyl-3-methyl-2-(4-methyl-pyridin-3-yl)-2,3,4,9-tetrahydro-b-carbolin-1-one] | 44 |
| Cc1ccncc1N1CCc2ccc(C(F)(F)F)c(F)c2C1=O [Example 47A, 8-Fluoro-2-(4-methyl-pyridin-3-yl)-7-trifluoromethyl-3,4-dihydro-2H-isoquinolin-1-one] | 12 |
| Cc1ccncc1N1C(=O)c2cc(C(F)(F)F)ccc2CC1C (stereo not shown) [Example 48A, 3-Methyl-2-(4-methyl-pyridin-3-yl)-7-trifluoromethyl-3,4-dihydro-2H-isoquinolin-1-one] | 16 |
| Cc1ccncc1N1CCc2cc(F)c(F)cc2C1=O [Example 49A, 6,7-difluoro-2-(4-methylpyridin-3-yl)-3,4-dihydroisoquinolin-1(2H)-one] | 159 |
| Cc1ccncc1N1CCc2sc3ccc(F)cc3c2C1=O [Example 50A, 8-Fluoro-2-(4-methylpyridin-3-yl)-3,4-dihydrobenzo[4,5]thieno[3,2-c]pyridin-1(2H)-one] | 6 |
| Cc1ccncc1N1CCc2ccc(OC(F)(F)F)cc2C1=O [Example 51A, 2-(4-Methylpyridin-3-yl)-7-(trifluoromethoxy)-3,4-dihydroisoquinolin-1(2H)-one] | 22 |
| O=C1c2cc(C(F)(F)F)ccc2CCN1c1cnccc1CN1CCCC1 [Example 52A, 2-(4-(Pyrrolidin-1-ylmethyl)pyridin-3-yl)-7-(trifluoromethyl)-3,4-dihydroisoquinolin-1(2H)-one] | 556 |
| O=C1c2cc(C(F)(F)F)ccc2CCN1c1cnccc1CNC1CC1 [Example 53A, 2-(4-((cyclopropylamino)methyl)pyridin-3-yl)-7-(trifluoromethyl)-3,4-dihydroisoquinolin-1(2H)-one] | 50 |
| Cn1cncc1N1CCc2ccc(C(F)(F)F)cc2C1=O [Example 54A, 2-(1-methyl-1H-imidazol-5-yl)-7-(trifluoromethyl)-3,4-dihydroisoquinolin-1(2H)-one] | 19 |
| O=C1c2cc(Cl)c(Cl)cc2CCN1c1cnccc1C(F)(F)F [Example 55A, 6,7-dichloro-2-(4-(trifluoromethyl)pyridin-3-yl)-3,4-dihydroisoquinolin-1(2H)-one] | 125 |
| O=C1c2ccc(C(F)(F)F)cc2CCN1c1cncc(F)c1 [Example 56A, 2-(5-fluoropyridin-3-yl)-6-(trifluoromethyl)-3,4-dihydroisoquinolin-(2H)-one] | 1110 |
| O=C1c2c(sc3ccc(F)cc23)CCN1c1cnccc1C(F)(F)F [Example 57A, 8-Fluoro-2-(4-trifluoromethylpyridine-3-yl)-3,4-dihydro-2H-benzo[4,5]thieno[3,2-c]pyridin-1-one] | 548 |
| O=C1c2c(sc3ccccc23)CCN1c1cnccc1C(F)(F)F [Example 58A, 2-(4-trifluoromethylpyridine-3-yl)-3,4-dihydro-2H-benzo[4,5]thieno[3,2-c]pyridin-1-one] | 218 |
| Cc1ccncc1N1CCc2[nH]c3ccc(F)cc3c2C1=O [Example 60A, 8-fluoro-2-(4-methylpyridin-3-yl)-2,3,4,5-tetrahydro-1H-pyrido[4,3-b]indol-1-one] | 9 |
| Cc1ccncc1N1CCc2c([nH]c3ccccc23)C1=O [Example 61A, 2-(4-methylpyridin-3-yl)-2,3,4,9-tetrahydro-1H-pyrido[3,4-b]indol-1-one] | 1510 |
| Cc1ccncc1-n1ccc2[nH]c3ccccc3c2c1=O [Example 62A, 2-(4-methylpyridin-3-yl)-2,5-dihydro-1H-pyrido[4,3-b]indol-1-one] | 17 |
| O=c1c2c(ccn1-c1cnccc1C(F)(F)F)[nH]c1ccc(F)cc12 [Example 64A, 8-fluoro-2-(4-(trifluoromethyl)pyridin-3-yl)-2,5-dihydro-1H-pyrido[4,3-b]indol-1-one] | 829 |
